The compounds below were run on β-catenin-TCF-mediated reporter transcription activity in Colo 205 cells (assay: Colo 205 reporter assay (TCF/LEF luciferase)). Conditions: Colo 205 TCF/LEF luciferase reporter, five hours after addition of compound; read-out: TCF reporter Colo205 IC50.
Assay type: cell-based
In short: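 Luciferase signal from a TCF/LEF-driven reporter, stably integrated in Colo 205 colon cancer cells, was measured 5 h after compound addition.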
`C[C@H]1C(=O)Nc2cnc(NC3CC(C)(OCc4cc(F)c(F)c(F)c4)C3)nc2N1C` (stereo in doubt) [Compound 289, (S)-7,8-dimethyl-2-((cis-3-methyl-3-((3,4,5-trifluorobenzyl)oxy)cyclobutyl)amino)-7,8-dihydropteridin-6(5H)-one] was tested, and the IC50 was ≥ 5000 nM.

Same assay, conditions: Homo sapiens, COLO 205, 5 h, Colo 205 TCF/LEF luciferase reporter, five hours after addition of compound; read-out: TCF reporter Colo205 IC50
In the case of `COCC1(C)C(=O)Nc2c(C)nc(N[C@H]3C[C@H](Oc4ccc(C(F)(F)F)nc4)C3)nc2N1C` (relative stereo) [Compound 724, 7-(methoxymethyl)-4,7,8-trimethyl-2-((trans-3-((6-(trifluoromethyl)pyridin-3-yl)oxy)cyclobutyl)amino)-7,8-dihydropteridin-6(5H)-one], the IC50 is reported as 300 to 1000 nM. With `Cc1nc(NCc2cc(C)n(-c3ccc(C(F)(F)F)cc3)c2C)nc2c1NC(=O)[C@H](C(C)C)N2C` [Compound 453, (S)-2-(((2,5-dimethyl-1-(4-(trifluoromethyl)phenyl)-1H-pyrrol-3-yl)methyl)amino)-7-isopropyl-4,8-dimethyl-7,8-dihydropteridin-6(5H)-one] the IC50 was < 300 nM. In the case of `Cc1nc(NCc2cnn(Cc3cc(F)c(F)cc3F)c2)nc2c1N(C)C(=O)[C@H](C)N2C` [Compound 16, (7S)-4,5,7,8-tetramethyl-2-(((1-(2,4,5-trifluorobenzyl)-1H-pyrazol-4-yl)methyl)amino)-7,8-dihydropteridin-6(5H)-one], the IC50 is reported as < 300 nM. Compound `COC1(C2C(=O)Nc3c(C)nc(NC4CN(C(=O)c5cc(F)c(F)c(F)c5)C4)nc3N2C)CCC1` (stereo not drawn) [Compound 675, 7-(1-methoxycyclobutyl)-4,8-dimethyl-2-((1-(3,4,5-trifluorobenzoyl)azetidin-3-yl)amino)-7,8-dihydropteridin-6(5H)-one] has an IC50 of 300 to 1000 nM. `Cc1nc(NCc2cnn(Cc3ccc(F)nc3)c2)nc2c1N(C)C(=O)[C@H](C)N2C` [Compound 82, (7S)-2-(((1-((6-fluoropyridin-3-yl)methyl)-1H-pyrazol-4-yl)methyl)amino)-4,5,7,8-tetramethyl-7,8-dihydropteridin-6(5H)-one] gave an IC50 of 300 to 1000 nM. For `C=C(C)c1nc(C(F)(F)F)ccc1Cn1cc(CNc2nc(C)c3c(n2)N(C)[C@@H](C)C(=O)N3)cn1` [Compound 387, (7S)-4,7,8-Trimethyl-2-(((1-((2-(prop-1-en-2-yl)-6-(trifluoromethyl)pyridin-3-yl)methyl)-1H-pyrazol-4-yl)methyl)amino)-7,8-dihydropteridin-6(5H)-one], the IC50 was < 300 nM. `Cc1cc(C(F)(F)F)n(C[C@H]2C[C@@H](Nc3nc(C)c4c(n3)N(C)[C@@H](C(C)C)C(=O)N4)C2)n1` [Compound 582, (S)-7-isopropyl-4,8-dimethyl-2-((cis-3-((3-methyl-5-(trifluoromethyl)-1H-pyrazol-1-yl)methyl)cyclobutyl)amino)-7,8-dihydropteridin-6(5H)-one] showed an IC50 of 300 to 1000 nM. For `Cc1nc(NCc2cnn(Cc3ccc(C(F)(F)F)nc3)c2)nc2c1NC(=O)[C@H](CC(F)(F)F)N2C` [Compound 495, (S)-4,8-dimethyl-7-(2,2,2-trifluoroethyl)-2-(((1-((6-(trifluoromethyl)pyridin-3-yl)methyl)-1H-pyrazol-4-yl)methyl)amino)-7,8-dihydropteridin-6(5H)-one], the IC50 was < 300 nM. With `CN1C(=O)C(C)(C)N(C)c2nc(NCc3cnn(Cc4cnccc4C(F)(F)F)c3)ncc21` [Compound 236, 5,7,7,8-Tetramethyl-2-(((1-((4-(trifluoromethyl)pyridin-3-yl)methyl)-1H-pyrazol-4-yl)methyl)amino)-7,8-dihydropteridin-6(5H)-one] the IC50 was < 300 nM. With `CO[C@H](C)[C@H]1C(=O)Nc2c(C)nc(NCc3cnn(CC4CC(F)(F)C4)c3)nc2N1C` [Compound 728, (S)-2-(((1-((3,3-difluorocyclobutyl)methyl)-1H-pyrazol-4-yl)methyl)amino)-7-((R)-1-methoxyethyl)-4,8-dimethyl-7,8-dihydropteridin-6(5H)-one] the IC50 was < 300 nM. With `Cc1ccc(O[C@H]2C[C@H](Nc3nc(C)c4c(n3)N(C)[C@@H](C)C(=O)N4C)C2)cc1` [Compound 338, (7S)-4,5,7,8-tetramethyl-2-((trans-3-(p-tolyloxy)cyclobutyl)amino)-7,8-dihydropteridin-6(5H)-one] the IC50 was 1000 to 5000 nM.

From US20230312587A1, “PTERIDINONE COMPOUNDS AND USES THEREOF” (Vertex Pharmaceutical Incorporated, priority 2018, published 2023)
